Assay results taken from ChEMBL document CHEMBL4715808, “Discovery of (1S,2R,3S,4S,5R,6R)-2-Amino-3-[(3,4-difluorophenyl)sulfanylmethyl]-4-hydroxy-bicyclo[3.1.0]hexane-2,6-dicarboxylic Acid Hydrochloride (LY3020371·HCl): A Potent, Metabotropic Glutamate 2/3 Receptor Antagonist with Antidepressant-Like Activity” (J Med Chem, 2016).

Tests used:
[1] = biological target: T1, Metabotropic glutamate receptor 2 (Homo sapiens, UniProt Q14416)
Description: Antagonist activity at human recombinant mGlu2 receptor stably expressed in golden hamster AV12 cells co-expressing rat EAAT1 assessed as reduction in DCG IV-induced inhibition of forskolin-stimulated cAMP accumulation preincubated for 20 mins followed by incubation with cAMP-d2 conjugate and anti-cAMP cryptate for 1 hr by HTRF assay

[2] = biological target: T2, Metabotropic glutamate receptor 3 (Homo sapiens, UniProt Q14832); assay: Displacement of [3H]-LY459477 from recombinant human mGlu3 receptor expressed in hamster AV12 cell membranes co-expressing rat EAAT1 incubated for 90 mins by top count scintillation method; set-up: species or system Cell membrane
[3] = biological target: T2, Metabotropic glutamate receptor 3; assay: Antagonist activity at human recombinant mGlu3 receptor stably expressed in golden hamster AV12 cells co-expressing rat EAAT1 assessed as reduction in DCG IV-induced inhibition of forskolin-stimulated cAMP accumulation preincubated for 20 mins followed by incubation with cAMP-d2 conjugate and anti-cAMP cryptate for 1 hr by HTRF assay; format: functional, cell-based
[4] = biological target: T1, Metabotropic glutamate receptor 2; remark: listed apart in the source
Description: Displacement of [3H]-LY459477 from recombinant human mGlu2 receptor expressed in hamster AV12 cell membranes co-expressing rat EAAT1 incubated for 90 mins by top count scintillation method

[5] = biological target: T1, Metabotropic glutamate receptor 2; assay: […] at mGlu2 (unknown origin)
[6] = biological target: T2, Metabotropic glutamate receptor 3; assay: […] at mGlu3 (unknown origin)

T1 sequence (Q14416 whole entry): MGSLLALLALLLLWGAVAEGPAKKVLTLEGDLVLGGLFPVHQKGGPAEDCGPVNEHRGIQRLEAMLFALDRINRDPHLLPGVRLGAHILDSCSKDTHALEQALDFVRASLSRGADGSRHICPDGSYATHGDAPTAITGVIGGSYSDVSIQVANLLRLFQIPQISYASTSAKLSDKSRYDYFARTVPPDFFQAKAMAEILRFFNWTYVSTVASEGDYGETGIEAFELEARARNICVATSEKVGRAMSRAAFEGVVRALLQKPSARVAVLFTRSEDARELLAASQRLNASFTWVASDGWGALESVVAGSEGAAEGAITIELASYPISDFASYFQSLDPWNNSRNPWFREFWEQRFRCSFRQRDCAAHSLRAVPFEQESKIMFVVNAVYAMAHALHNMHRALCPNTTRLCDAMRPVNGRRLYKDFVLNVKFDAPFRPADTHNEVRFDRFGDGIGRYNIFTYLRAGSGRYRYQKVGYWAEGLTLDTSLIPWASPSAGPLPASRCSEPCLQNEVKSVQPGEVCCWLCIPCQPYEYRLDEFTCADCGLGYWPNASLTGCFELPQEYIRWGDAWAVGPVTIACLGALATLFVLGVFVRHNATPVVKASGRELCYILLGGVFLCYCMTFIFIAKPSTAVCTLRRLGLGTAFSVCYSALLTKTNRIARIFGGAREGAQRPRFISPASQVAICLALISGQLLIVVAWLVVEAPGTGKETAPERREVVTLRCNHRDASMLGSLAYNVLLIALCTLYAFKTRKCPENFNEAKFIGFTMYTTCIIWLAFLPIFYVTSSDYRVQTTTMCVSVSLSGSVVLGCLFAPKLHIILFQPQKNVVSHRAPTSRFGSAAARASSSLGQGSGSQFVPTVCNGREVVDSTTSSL
T2 sequence (Q14832 whole entry): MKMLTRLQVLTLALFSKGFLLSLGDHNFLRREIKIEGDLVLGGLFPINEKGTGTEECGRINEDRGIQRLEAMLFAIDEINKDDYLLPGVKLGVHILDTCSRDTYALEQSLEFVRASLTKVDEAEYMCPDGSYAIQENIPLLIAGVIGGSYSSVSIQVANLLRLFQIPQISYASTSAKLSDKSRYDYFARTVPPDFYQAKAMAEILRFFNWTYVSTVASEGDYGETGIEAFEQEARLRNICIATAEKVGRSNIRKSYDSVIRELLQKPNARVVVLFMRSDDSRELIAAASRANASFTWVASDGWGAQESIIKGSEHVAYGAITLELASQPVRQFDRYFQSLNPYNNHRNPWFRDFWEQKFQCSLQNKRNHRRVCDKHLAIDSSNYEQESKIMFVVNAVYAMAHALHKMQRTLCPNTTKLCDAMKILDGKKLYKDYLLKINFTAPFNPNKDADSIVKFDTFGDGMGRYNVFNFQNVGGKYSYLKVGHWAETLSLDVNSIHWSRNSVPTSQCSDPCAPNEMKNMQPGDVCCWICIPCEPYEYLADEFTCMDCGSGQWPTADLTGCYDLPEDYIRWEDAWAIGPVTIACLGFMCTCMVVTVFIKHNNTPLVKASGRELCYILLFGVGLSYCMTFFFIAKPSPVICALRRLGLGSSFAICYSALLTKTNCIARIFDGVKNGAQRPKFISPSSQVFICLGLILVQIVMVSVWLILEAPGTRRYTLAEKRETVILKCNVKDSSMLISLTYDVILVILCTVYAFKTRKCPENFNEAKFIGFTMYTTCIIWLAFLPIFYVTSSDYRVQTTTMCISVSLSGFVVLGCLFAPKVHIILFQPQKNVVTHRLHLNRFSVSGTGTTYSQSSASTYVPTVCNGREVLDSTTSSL

SMILES | IC50 [1] | Ki [2] | IC50 [3] | Ki [4] | IC50 [5] | IC50 [6]
Cc1cc(SC[C@@H]2[C@@H](N)[C@H]3[C@H](C(=O)O)[C@H]3[C@]2(N)C(=O)O)ccc1F | 45.4 nM | 36.1 nM | 163 nM | 24 nM | – | –
N[C@@]1(C(=O)O)C[C@@H](O)[C@H]2[C@H](C(=O)O)[C@H]21 | – | – | – | – | 8.6 nM | –
N[C@]1(C(=O)O)[C@@H]2[C@@H](C(=O)O)[C@@H]2[C@@H](O)[C@H]1CSc1ccccc1 | – | 26 nM | 547 nM | – | – | –
N[C@@]1(C(=O)O)[C@H](Cc2ccc(F)c(Cl)c2)C[C@H]2[C@H](C(=O)O)[C@H]21 | – | – | 110 nM | – | – | –
N[C@]1(C(=O)O)[C@@H]2[C@@H](C(=O)O)[C@@H]2[C@@H](O)[C@@H]1CSc1ccccc1 | – | 238 nM | 2160 nM | – | – | –
N[C@@]1(C(=O)O)CC[C@H]2[C@H](C(=O)O)[C@H]21 | – | – | – | – | 7 nM | 27.9 nM
N[C@@]1(C(=O)O)C[C@H](O)[C@H]2[C@H](C(=O)O)[C@H]21 | – | – | – | – | 22.6 nM | –
Cc1cc(SC[C@@H]2[C@@H](Sc3nc[nH]n3)[C@H]3[C@H](C(=O)O)[C@H]3[C@]2(N)C(=O)O)ccc1F | 6.6 nM | – | – | 5.2 nM | – | –
N[C@]1(C(=O)O)[C@@H]2[C@@H](C(=O)O)[C@@H]2[C@H](O)[C@H]1CSc1ccccc1F | 1440 nM | 369 nM | 967 nM | 728 nM | – | –
N[C@]1(C(=O)O)[C@@H]2[C@@H](C(=O)O)[C@@H]2[C@H](O)[C@H]1CSCc1ccc(Cl)c(Cl)c1 | 49.4 nM | 16.3 nM | 62.3 nM | 20.5 nM | – | –
